Experimental data: patent publication US10603296B1, “Compositions and methods for diagnosis and treatment of neuromuscular disorders” (United States of America as represented by the Secretary of …, priority 2019, dated 2020)
“Also recorded” adds a separate entry of the source.

Experiments:
G-protein Gi1α = details: literature (Galbiati et al., Biochem J 313:717-720); cited from earlier work
[1] = room temperature; cited from earlier work
[2] = system: alpha-smooth muscle actin (α-SMA); assay: BioMAP human primary cell system mimicking myofibroblast development: alpha-smooth muscle actin level; assay type: cell-based; details: human primary lung fibroblasts stimulated with TGF-β and TNF-α, 24 hours; 2.6, 7.8, 23 and 70 μM; dose-dependent (FIG. 4)
Description: Phenotypic profiling, including antifibrotic activity, was conducted across 12 human primary cell-based systems as part of DiscoverX's BioMAP Diversity Plus program. These systems are designed to model complex human tissue and disease biology of the vasculature, skin, lung, and inflammatory tissues. […] Cell-based activated systems were incubated with pure N-acetylhistamine for 24 to 72 hours. Protein-based biomarkers from activated cell systems were measured and compared with controls. Biomarker activities were annotated when 2 or more consecutive concentrations change in the same directions relative to vehicle controls, were outside of the significance envelope and had at least one concentration with an effect size >20% (log 10 ratio)>0.1.
In our study, N-acetylhistamine, an […] involved in histadine metabolism, caused a significant and dose-dependent decrease in alpha-smooth muscle actin (α-SMA), a protein involved in muscle contraction, cell motility, structure and integrity and a marker for activated myofibroblast phenotype, in a human cell system mimicking myofibroblast development. In this system, human primary lung fibroblasts were stimulated with TGF-β and TNF-α and incubated with the test agent, drug control, or vehicle control for 24 hours. A negative, non-stimulated system was also included.

Row | Compound | effect on myristoylation of Gi1α (G-protein Gi1α) | stability of the powder [1] | change in alpha-smooth muscle actin (α-SMA) compared to internal controls [2]
1 | CCCCCCCCCCCCC(O)C(=O)O (stereo not drawn) [2-hydroxymyristate] | inhibits |  | 
2 | CC(=O)NCCc1c[nH]cn1 [N-acetylhistamine] |  | stable at room temperature | significantly decreased; also recorded: lowered
